Laboratory results as given in ChEMBL document CHEMBL5649166, “RIP3 induces apoptosis independent of pronecrotic kinase activity” (Mol Cell, 2014).

Columns and labels:
[1] = target: High affinity nerve growth factor receptor (Homo sapiens) (UniProt P04629); test: Inhibition of human TRKA using poly[Glu:Tyr] (4:1) as substrate at 1 uM in presence of 32P-ATP by Hotspot assay relative to control
MEF = test: Induction of apoptosis in RIP3-/- MEF cells transfected with human RIP3mutRHIM incubated for 18 hrs by Cell Titer-Glo luminescent cell viability assay; type: toxicity, cell-based; details: mouse
[2] = target: T1, Serine/threonine-protein kinase D2 (Homo sapiens) (UniProt Q9BZL6); test: Residual activity of human PKD2/PRKD2 using KKLNRTLSVA as substrate at 1 uM in presence of 32P-ATP by Hotspot assay relative to control
T1 sequence (whole entry): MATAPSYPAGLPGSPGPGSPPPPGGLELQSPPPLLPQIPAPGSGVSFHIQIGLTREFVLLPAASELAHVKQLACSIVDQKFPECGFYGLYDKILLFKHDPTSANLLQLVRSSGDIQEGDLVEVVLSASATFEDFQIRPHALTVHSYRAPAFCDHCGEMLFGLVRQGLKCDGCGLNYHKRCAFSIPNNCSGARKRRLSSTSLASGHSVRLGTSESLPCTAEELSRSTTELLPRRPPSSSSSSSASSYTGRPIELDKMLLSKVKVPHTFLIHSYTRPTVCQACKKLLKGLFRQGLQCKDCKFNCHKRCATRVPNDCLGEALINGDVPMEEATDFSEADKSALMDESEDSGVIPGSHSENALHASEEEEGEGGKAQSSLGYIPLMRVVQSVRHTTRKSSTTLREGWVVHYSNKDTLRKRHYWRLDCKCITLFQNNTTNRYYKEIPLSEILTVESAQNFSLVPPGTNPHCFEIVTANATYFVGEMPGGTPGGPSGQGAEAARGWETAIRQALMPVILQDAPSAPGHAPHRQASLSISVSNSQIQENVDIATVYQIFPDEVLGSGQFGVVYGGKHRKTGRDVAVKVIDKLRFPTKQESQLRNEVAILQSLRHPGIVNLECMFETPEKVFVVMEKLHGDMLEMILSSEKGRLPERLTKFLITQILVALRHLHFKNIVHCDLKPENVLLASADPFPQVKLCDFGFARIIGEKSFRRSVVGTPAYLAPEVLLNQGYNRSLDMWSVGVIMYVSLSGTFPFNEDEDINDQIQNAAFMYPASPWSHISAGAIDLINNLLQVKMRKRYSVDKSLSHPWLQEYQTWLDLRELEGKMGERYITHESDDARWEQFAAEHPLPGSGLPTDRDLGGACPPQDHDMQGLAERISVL

[3] = target: Dual specificity tyrosine-phosphorylation-regulated kinase 1A (Homo sapiens) (UniProt Q13627); test: Residual activity of human DYRK1/DYRK1A using RRRFRPASPLRGPPK as substrate at 1 uM in presence of 32P-ATP by Hotspot assay relative to control
[4] = target: Mitogen-activated protein kinase kinase kinase 10 (Homo sapiens) (UniProt Q02779); test: Residual activity of human MLK2/MAP3K10 using myelin basic protein as substrate at 1 uM in presence of 32P-ATP by Hotspot assay relative to control
[5] = target: Mitogen-activated protein kinase 10 (Homo sapiens) (UniProt P53779); test: Inhibition of human JNK3 using ATF2 as substrate at 1 uM in presence of 32P-ATP by Hotspot assay relative to control; values are per cent of control
[6] = target: G protein-coupled receptor kinase 4 (Homo sapiens) (UniProt P32298); test: Inhibition of human GRK4 using casein as substrate at 1 uM in presence of 32P-ATP by Hotspot assay relative to control; values are per cent of control
[7] = target: Serine/threonine-protein kinase Nek6 (Homo sapiens) (UniProt Q9HC98); test: Inhibition of human NEK6 using casein as substrate at 1 uM in presence of 32P-ATP by Hotspot assay relative to control; values are per cent of control
[8] = target: SRSF protein kinase 2 (Homo sapiens) (UniProt P78362); test: Inhibition of human SRPK2 using GRSRSRSRSR as substrate at 1 uM in presence of 32P-ATP by Hotspot assay relative to control; values are per cent of control
[9] = target: Epidermal growth factor receptor (Homo sapiens) (UniProt P00533); test: Inhibition of human EGFR using poly[Glu:Tyr] (4:1) as substrate at 1 uM in presence of 32P-ATP by Hotspot assay relative to control; values are per cent of control
[10] = target: Serine/threonine-protein kinase 10 (Homo sapiens) (UniProt O94804); test: Inhibition of human LOK/STK10 using RLGRDKYKTLRQIRQ as substrate at 1 uM in presence of 32P-ATP by Hotspot assay relative to control; values are per cent of control
[11] = target: Homeodomain-interacting protein kinase 3 (Homo sapiens) (UniProt Q9H422); test: Inhibition of human HIPK3 using myelin basic protein as substrate at 1 uM in presence of 32P-ATP by Hotspot assay relative to control; values are per cent of control
[12] = target: T2, Mitogen-activated protein kinase 13 (Homo sapiens) (UniProt O15264); test: Inhibition of human P38d/MAPK13 using myelin basic protein as substrate at 1 uM in presence of 32P-ATP by Hotspot assay relative to control; values are per cent of control
T2 sequence (whole entry): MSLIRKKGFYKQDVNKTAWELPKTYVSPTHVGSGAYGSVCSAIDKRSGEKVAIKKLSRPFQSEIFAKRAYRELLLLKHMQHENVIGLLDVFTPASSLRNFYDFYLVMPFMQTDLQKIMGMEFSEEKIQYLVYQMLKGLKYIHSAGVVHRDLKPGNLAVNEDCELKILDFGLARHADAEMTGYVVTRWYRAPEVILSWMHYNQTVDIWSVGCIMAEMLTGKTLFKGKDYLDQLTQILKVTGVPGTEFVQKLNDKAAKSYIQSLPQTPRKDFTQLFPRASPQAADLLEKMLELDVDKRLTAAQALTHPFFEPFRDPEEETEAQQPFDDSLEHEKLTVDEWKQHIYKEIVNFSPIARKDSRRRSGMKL

Sequence of Homeodomain-interacting protein kinase 3 (Homo sapiens) (Q9H422 whole entry, looked up): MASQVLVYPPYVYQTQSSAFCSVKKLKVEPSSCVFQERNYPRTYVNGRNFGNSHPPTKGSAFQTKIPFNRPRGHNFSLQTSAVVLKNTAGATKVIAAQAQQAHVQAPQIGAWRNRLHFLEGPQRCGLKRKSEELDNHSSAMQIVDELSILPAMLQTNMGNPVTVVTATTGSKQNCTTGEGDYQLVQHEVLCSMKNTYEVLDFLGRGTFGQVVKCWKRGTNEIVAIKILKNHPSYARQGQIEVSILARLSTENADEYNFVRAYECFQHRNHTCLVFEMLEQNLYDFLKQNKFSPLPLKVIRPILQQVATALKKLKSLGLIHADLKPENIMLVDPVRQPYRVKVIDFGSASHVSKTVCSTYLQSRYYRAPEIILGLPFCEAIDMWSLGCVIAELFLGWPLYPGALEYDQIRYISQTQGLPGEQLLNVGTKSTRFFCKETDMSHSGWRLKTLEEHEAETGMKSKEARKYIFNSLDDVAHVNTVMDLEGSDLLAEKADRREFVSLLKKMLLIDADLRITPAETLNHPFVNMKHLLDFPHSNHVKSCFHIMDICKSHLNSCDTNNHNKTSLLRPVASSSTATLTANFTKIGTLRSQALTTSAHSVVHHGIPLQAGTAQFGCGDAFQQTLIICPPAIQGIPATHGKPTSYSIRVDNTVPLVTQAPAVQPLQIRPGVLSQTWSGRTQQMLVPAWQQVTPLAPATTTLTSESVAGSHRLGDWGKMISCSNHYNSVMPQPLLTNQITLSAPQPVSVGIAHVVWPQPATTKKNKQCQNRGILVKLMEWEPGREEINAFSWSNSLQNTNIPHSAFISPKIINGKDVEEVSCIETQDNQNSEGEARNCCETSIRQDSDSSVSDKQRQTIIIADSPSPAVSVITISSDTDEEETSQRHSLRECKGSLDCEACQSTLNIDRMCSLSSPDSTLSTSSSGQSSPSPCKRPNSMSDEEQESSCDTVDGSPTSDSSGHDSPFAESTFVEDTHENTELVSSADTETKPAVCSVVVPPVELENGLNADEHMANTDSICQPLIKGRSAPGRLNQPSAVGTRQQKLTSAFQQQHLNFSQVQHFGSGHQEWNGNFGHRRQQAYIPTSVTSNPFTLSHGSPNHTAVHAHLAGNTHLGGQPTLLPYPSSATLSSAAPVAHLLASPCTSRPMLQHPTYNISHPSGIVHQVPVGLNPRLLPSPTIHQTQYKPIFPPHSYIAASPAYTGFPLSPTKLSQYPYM
Sequence of High affinity nerve growth factor receptor (Homo sapiens) (P04629 33-796 limits assumed): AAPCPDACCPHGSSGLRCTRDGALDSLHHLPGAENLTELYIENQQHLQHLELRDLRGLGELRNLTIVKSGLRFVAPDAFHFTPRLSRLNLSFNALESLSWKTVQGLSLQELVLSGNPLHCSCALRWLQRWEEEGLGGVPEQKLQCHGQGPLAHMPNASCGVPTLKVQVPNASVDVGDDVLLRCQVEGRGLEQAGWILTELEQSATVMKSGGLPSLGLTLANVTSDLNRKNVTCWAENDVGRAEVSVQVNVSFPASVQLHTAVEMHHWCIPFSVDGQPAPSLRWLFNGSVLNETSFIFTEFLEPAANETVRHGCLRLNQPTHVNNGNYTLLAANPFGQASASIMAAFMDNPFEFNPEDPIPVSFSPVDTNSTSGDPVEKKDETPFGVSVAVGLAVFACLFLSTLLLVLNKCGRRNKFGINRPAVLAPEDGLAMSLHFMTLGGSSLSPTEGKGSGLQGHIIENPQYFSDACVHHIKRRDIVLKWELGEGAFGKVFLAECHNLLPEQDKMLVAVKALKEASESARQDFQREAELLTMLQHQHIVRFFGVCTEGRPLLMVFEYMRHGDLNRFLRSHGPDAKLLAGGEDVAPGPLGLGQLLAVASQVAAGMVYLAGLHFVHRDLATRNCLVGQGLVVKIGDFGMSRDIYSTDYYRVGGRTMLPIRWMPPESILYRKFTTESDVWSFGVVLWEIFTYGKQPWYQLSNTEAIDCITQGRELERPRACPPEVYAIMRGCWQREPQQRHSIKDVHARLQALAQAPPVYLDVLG
Sequence of Mitogen-activated protein kinase 10 (Homo sapiens) (P53779 whole entry): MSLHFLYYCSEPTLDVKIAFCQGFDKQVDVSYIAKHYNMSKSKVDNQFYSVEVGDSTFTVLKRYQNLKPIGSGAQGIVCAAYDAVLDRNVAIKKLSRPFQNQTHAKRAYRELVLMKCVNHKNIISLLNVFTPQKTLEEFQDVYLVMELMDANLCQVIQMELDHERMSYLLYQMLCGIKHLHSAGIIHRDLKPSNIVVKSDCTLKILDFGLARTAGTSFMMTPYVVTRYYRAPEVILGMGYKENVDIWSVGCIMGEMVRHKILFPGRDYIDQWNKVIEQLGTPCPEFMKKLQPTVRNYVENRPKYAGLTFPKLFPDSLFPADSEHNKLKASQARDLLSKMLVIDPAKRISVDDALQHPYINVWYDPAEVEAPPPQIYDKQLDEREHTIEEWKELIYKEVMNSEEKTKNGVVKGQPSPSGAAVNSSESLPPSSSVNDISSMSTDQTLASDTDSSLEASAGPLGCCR
Sequence of Serine/threonine-protein kinase Nek6 (Homo sapiens) (Q9HC98 whole entry): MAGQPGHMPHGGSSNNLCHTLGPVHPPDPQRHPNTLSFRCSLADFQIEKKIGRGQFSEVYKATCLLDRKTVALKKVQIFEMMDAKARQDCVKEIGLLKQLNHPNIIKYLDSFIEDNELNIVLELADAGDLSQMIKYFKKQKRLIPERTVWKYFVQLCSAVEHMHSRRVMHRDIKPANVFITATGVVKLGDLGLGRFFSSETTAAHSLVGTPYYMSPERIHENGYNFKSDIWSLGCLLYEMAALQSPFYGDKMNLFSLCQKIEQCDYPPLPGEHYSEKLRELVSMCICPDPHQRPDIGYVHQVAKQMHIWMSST
Sequence of Serine/threonine-protein kinase 10 (Homo sapiens) (O94804 whole entry, looked up): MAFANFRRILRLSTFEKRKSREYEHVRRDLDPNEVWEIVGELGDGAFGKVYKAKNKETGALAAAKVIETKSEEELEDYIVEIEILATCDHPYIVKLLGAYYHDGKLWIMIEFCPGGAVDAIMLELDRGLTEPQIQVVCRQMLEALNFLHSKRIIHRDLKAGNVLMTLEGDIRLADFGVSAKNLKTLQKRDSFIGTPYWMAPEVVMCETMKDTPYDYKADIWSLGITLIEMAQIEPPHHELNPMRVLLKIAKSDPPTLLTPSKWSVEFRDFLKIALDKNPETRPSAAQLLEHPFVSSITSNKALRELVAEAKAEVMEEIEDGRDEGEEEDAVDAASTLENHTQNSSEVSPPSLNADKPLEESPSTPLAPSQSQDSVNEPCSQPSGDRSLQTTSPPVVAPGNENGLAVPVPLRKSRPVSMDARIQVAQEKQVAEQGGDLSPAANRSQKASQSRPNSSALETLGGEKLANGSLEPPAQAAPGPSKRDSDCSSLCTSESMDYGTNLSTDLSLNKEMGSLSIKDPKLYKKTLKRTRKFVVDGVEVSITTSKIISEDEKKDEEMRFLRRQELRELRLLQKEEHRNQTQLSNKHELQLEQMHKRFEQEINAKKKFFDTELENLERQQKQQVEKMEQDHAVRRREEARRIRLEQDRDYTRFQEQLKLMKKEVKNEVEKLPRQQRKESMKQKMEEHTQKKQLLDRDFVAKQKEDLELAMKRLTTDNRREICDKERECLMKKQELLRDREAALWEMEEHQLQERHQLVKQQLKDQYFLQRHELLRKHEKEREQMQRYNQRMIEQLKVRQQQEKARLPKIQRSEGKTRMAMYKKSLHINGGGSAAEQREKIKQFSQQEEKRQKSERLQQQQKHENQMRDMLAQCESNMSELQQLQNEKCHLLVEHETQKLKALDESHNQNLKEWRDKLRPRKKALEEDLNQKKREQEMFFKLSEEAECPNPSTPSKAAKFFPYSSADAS
Sequence of SRSF protein kinase 2 (Homo sapiens) (P78362 whole entry, looked up): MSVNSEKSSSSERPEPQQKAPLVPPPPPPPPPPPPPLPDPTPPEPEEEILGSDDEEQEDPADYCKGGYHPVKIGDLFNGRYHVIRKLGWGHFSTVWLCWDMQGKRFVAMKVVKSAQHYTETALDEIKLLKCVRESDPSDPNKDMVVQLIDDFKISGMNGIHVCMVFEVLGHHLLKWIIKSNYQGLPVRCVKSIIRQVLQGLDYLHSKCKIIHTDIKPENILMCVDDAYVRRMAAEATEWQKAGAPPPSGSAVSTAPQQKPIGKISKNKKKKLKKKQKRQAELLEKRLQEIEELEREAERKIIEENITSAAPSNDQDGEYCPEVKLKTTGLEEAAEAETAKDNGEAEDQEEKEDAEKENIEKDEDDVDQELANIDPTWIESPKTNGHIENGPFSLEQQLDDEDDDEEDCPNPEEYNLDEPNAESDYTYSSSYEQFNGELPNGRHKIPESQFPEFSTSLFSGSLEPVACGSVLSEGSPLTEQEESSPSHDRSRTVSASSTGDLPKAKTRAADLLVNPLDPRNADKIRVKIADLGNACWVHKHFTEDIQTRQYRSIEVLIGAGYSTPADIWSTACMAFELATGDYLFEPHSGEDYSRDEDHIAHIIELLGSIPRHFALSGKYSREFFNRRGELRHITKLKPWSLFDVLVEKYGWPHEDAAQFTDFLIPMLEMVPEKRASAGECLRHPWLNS
Sequence of G protein-coupled receptor kinase 4 (Homo sapiens) (P32298 whole entry, looked up): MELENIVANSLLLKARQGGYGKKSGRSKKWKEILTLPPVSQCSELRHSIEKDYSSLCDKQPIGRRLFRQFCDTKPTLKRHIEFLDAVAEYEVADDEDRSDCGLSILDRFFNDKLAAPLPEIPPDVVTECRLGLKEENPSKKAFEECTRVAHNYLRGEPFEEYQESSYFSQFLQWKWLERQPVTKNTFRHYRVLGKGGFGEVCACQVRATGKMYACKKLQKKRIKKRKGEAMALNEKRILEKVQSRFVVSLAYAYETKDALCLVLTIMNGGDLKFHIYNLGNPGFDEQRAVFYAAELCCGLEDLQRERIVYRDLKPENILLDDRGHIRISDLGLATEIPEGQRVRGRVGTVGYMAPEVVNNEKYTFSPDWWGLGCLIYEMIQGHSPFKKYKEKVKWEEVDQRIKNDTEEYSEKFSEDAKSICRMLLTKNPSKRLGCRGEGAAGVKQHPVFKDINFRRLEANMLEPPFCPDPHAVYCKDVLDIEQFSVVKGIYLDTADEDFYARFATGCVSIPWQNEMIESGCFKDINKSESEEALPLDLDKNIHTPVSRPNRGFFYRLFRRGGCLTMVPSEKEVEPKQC

In the case of `Cc1cc(-c2cnc(N)c3c(-c4ccc5scnc5c4)csc23)n(C)n1`, the inhibition [1] is reported as 84.7%, the Activity (MEF) is reported as “Non-Toxic” and the residual activity [2] is reported as 39.4%. The residual activity [3] was 99.6%, the residual activity [4] was 97.5% and the residual activity [5] was 85.9%. For the same compound, the residual activity [6] was 97.2%, the residual activity [7] was 96% and the residual activity [8] was 96.2%. The residual activity [9] was 93.9%, the residual activity [10] was 78.2% and the residual activity [11] was 101%. For the same compound, the residual activity [12] was 103%.
For `CC(C)S(=O)(=O)c1ccc2nccc(Nc3ccc4scnc4c3)c2c1`, the inhibition [1] was 89.3%, the Activity (MEF) was “Non-Toxic” and the residual activity [2] was 101%. For the same compound, the residual activity [3] was 98.8%, the residual activity [4] was 84.5% and the residual activity [5] was 106%. It also gave a residual activity [6] of 100%, a residual activity [7] of 104% and a residual activity [8] of 94%. It also gave a residual activity [9] of 90.7%, a residual activity [10] of 70.9% and a residual activity [11] of 104%. The residual activity [12] was 94.8%.
In the case of `CNC(=O)c1ccc2c(c1)ncn2-c1ccc(CC(=O)OC(C)(C)C)cc1`, the inhibition [1] is reported as 79.5%, the Activity (MEF) is reported as “Non-Toxic” and the residual activity [2] is reported as 99%. For the same compound, the residual activity [3] was 99.4%, the residual activity [4] was 90.9% and the residual activity [5] was 104%. The residual activity [6] was 94.6%, the residual activity [7] was 104% and the residual activity [8] was 98.5%. It also gave a residual activity [9] of 97.7%, a residual activity [10] of 96.8% and a residual activity [11] of 102%. For the same compound, the residual activity [12] was 104%.
